# From article PMC6470589, “Contribution of Molecular Structure to Self-Assembling and Biological Properties of Bifunctional Lipid-Like 4-(N-Alkylpyridinium)-1,4-Dihydropyridines” (Pharmaceutics, 2019)
# Where “and” joins values, the source holds several entries; their conditions need not be identical. Equal values may be shown once. Entries after “also recorded” stand apart in the source; their conditions may differ.
# Assays:
# [1] = test system: Bacillus subtilis subsp. spizizenii; experiment: Toxicity screen, serial dilution-spot test; format: cell-based; details: gram positive; 24 h exposure in DI water, 28 °C; 0.0001 = no colonies at 0.001 mM;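 note: last dilution that did not fully inhibit growth with colonies still present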
# Procedure: (§1) An estimation of the toxicity of 4-(N-alkylpyridinium)-1,4-DHP derivatives 3, 6, 7, and 9–11 was performed using six prokaryotic (bacteria) and one eukaryotic (yeast) microorganism species according to the procedure elaborated by Suppi et al.. The microorganisms used in the study and their origin were: Bacillus subtilis subsp. spizizenii (ATCC® 6633™*, Microbiologics®, St Cloud, MN, USA), Escherichia coli (ATCC® 8739, Microbiologics®), Klebsiella pneumoniae (Latvian Microorganisms strain collection, LMKK, strain number 535, Riga, Latvia), Micrococcus luteus (LMKK, No. 25), Pseudomonas aeruginosa (NCTC 12924, Biosciences Ltd., Dublin, Ireland), Proteus mirabilis (LMKK, No 590), and Saccharomyces cerevisiae, CEN.PK2 strain [32].
# (§2) Bacteria and yeast cultures were cultivated until their exponential growth phase (optical density max 1); then, 100 µL of cell suspension was taken, washed in deionised (DI) water, and added to serially diluted samples of corresponding 4-(N-alkylpyridinium)-1,4-DHPs in DI water. All 1,4-DHPs were tested in five serially diluted concentrations (10 mM, 1 mM, 0.1 mM, 0.01 mM, and 0.001 mM). Test organisms were exposed to 1,4-DHP derivatives in DI water on 96-well microplates (Corning, Corning, NY, USA) at 28 °C for 24 h without shaking in the dark. Then, a 5 µL sample was taken from each well and spotted on yeast extract, bactopeptone, dextrose broth (YPD) (yeast extract 1%, bactopeptone 2%, glucose 2% and agar 2%) plates to test the growth of yeasts and lysogeny broth (LB) (yeast extract 0.5%, bactopeptone 1%, NaCl 0.5% and agar 2%) to test the growth for bacteria. Plates were left in 30 °C for 24 h, and assessed for microbial growth.
# (§3) If there were no colonies after incubation with 1,4-DHPs in the last concentration of (0.001 mM), then their boundary concentration was set to 0.0001 mM or 0.1 µM.
# Escherichia coli = experiment: Toxicity screen, serial dilution-spot test; format: cell-based; details: gram negative; 24 h exposure in DI water, 28 °C; 0.0001 = no colonies at 0.001 mM;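 note: last dilution that did not fully inhibit growth with colonies still present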
# Procedure: as §1, §2, §3
# Klebsiella pneumoniae = experiment: Toxicity screen, serial dilution-spot test; format: cell-based; details: gram negative; 24 h exposure in DI water, 28 °C; 0.0001 = no colonies at 0.001 mM;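 note: last dilution that did not fully inhibit growth with colonies still present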
# Procedure: as §1, §2, §3
# Micrococcus luteus = experiment: Toxicity screen, serial dilution-spot test; format: cell-based; details: gram positive; 24 h exposure in DI water, 28 °C; 0.0001 = no colonies at 0.001 mM;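 note: last dilution that did not fully inhibit growth with colonies still present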
# Procedure: as §1, §2, §3
# Proteus mirabilis = experiment: Toxicity screen, serial dilution-spot test; format: cell-based; details: gram negative; 24 h exposure in DI water, 28 °C; 0.0001 = no colonies at 0.001 mM;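 note: last dilution that did not fully inhibit growth with colonies still present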
# Procedure: as §1, §2, §3
# Pseudomonas aeruginosa = experiment: Toxicity screen, serial dilution-spot test; format: cell-based; details: gram negative; 24 h exposure in DI water, 28 °C; 0.0001 = no colonies at 0.001 mM;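 note: last dilution that did not fully inhibit growth with colonies still present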
# Procedure: as §1, §2, §3
# [2] = test system: Saccharomyces cerevisiae, CEN.PK2 strain; experiment: Toxicity screen, serial dilution-spot test; format: cell-based; details: yeast; 24 h exposure in DI water, 28 °C; 0.0001 = no colonies at 0.001 mM;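 note: last dilution that did not fully inhibit growth with colonies still present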
# Procedure: as §1, §2, §3
# [3] = test system: six prokaryotic (bacteria) and one eukaryotic (yeast) microorganism species; experiment: Toxicity screen, whole panel of microorganisms; format: cell-based; details: concentrations tested 10 to 0.001 mM
# Procedure: as §1, §2, §3
# [4] = Self-assembling properties by dynamic light scattering (DLS); format: physicochemical
# Procedure: Samples of compounds for dynamic light scattering (DLS) studies were prepared by thin-film hydration method in an aqueous solution at a concentration of 0.5 mg/mL for compounds 1–7, 0.25 mg/mL for compounds 8–10, and 0.1 mg/mL for compound 11. A corresponding amount of compounds was weighted in a round-bottom flask and dissolved in chloroform; then, the organic solvent was removed in vacuo, and the residue was dried in high vacuo for 1 h. An appropriate amount of deionised water was added to each flask for the preparation of stock solutions with the above-mentioned concentrations. Samples were prepared by sonication using a bath-type sonicator (Cole Parmer Ultrasonic Cleaner 8891CPX (Vernon Hills, IL, USA)). Samples were sonicated for 60 min at 50 °C.
# The DLS measurements of the nanoparticles in an aqueous solution were carried out on a Zetasizer Nano ZSP (Malvern Panalytical Ltd., Malvern, UK) instrument with Malvern Instruments Ltd. Software 7.12, using the following specifications—medium: water; refractive index: 1.33; viscosity: 0.8872 cP; temperature: 25 °C; dielectric constant: 78.5; nanoparticles: liposomes; refractive index of materials: 1.60; detection angle: 173°; wavelength: 633 nm. Data were analysed using the multimodal number distribution software that was included with the instrument. The measurements were performed in triplicate in order to check their reproducibility.
# [5] = Determination of critical aggregation concentration (CAC) by DLS; format: physicochemical; details: aqueous media
# Procedure: The critical aggregation concentrations (CAC) of 4-(N-alkylpyridinium)-1,4-DHP derivatives were determined in aqueous media using a Zetasizer Nano S90 (Malvern Panalytical Ltd., Malvern, UK) instrument with Malvern Instruments Ltd. Software according to procedure described by Topel et al. and modified by our group. Briefly, as stock solutions of tested compounds were used, samples were prepared for self-assembling experiments. All of the subsequent samples were prepared starting from the concentrated stock solution, which was subjected to a serial two-fold dilution each time with water. The intensity values of scattered light (kcps) as a function of concentration of amphiphiles were analysed. The scattering intensities detected for amphiphile concentrations below CAC have an approximately constant value corresponding to water. The intensity starts to show a linear increase with concentration at the CAC, since the amount of nanoparticles increases in the solution. The intersection of the best-fit lines drawn through the data points is the preliminary CAC value of the compounds.
# [6] = parameters: method as in PMID 9713710; details: cited from earlier work
# human erythrocytes = test system: human erythrocytes; parameters: method as in PMID 9713710; details: cited from earlier work
smiles,measurement,setting,value
CCCCCCCCCCCCCCCC[n+]1cccc(C2C(C(=O)OCC)=C(C)NC(C)=C2C(=O)OCC)c1 [Compound 10],"Boundary concentration, B. subtilis",[1],0.0001 mM
same,"Boundary concentration, E. coli",Escherichia coli,0.01 mM
same,"Boundary concentration, K. pneumoniae",Klebsiella pneumoniae,0.01 mM
same,"Boundary concentration, M. luteus",Micrococcus luteus,0.001 mM
same,"Boundary concentration, P. mirabilis",Proteus mirabilis,0.01 mM
same,"Boundary concentration, P. aeruginosa",Pseudomonas aeruginosa,10 mM
same,"Boundary concentration, S. cerevisiae",[2],0.0001 mM
same,Effect on survival of microorganisms,[3],toxic at various degrees
same,"PDI ± SD, 1 Set",[4]; freshly prepared samples,0.10 and 0.10 ± 0.06
same,Zeta-Pot ± SD,"[4]; freshly prepared samples in water, 0.5 mg/mL (1–7), 0.25 mg/mL (8–10), 0.1 mg/mL (11)",+49.70 ± 7.94 mV
same,"PDI ± SD, 2 Set","[4]; two weeks after the first set, samples stored at r.t.",0.25 and 0.25 ± 0.05
same,Stability of nanoparticles,"[4]; two weeks of storage at r.t., DLS",stable after two weeks of storage; also recorded: confirmed the stability of nanoparticles
same,CAC,[5],28.2 µM
same,Release of calcein from DPPC liposomes,[6],remarkable release of calcein from DPPC liposomes
same,Hemolysis of human erythrocytes,human erythrocytes,induced the hemolysis of human erythrocytes
